Assay results: ChEMBL document CHEMBL3352532, “Microwave assisted synthesis and docking study of N-(2-oxo-2-(4-oxo-2-substituted thiazolidin-3ylamino)ethyl)benzamide derivatives as anticonvulsant agents” (Bioorg Med Chem Lett, 2014)
Activity calls are given as the source filed them. No cut-off for these calls is given here.

Assays:
Mus musculus [1] = test: Anticonvulsant activity in ip dosed Swiss CF1 mouse measured after 4 hrs by scPTZ test; type: functional
Mus musculus [2] = test: Anticonvulsant activity in ip dosed Swiss CF1 mouse measured after 0.5 hrs by scPTZ test; type: functional
Mus musculus [3] = test: Behavioral activity in Swiss CF1 mouse assessed as activity score at 100 mg/kg, ip measured after 0.5 hrs post dose by actophotometry; type: organism-based; parameters: dose 100 mg/kg, route intraperitoneal; conditions: in vivo
Mus musculus [4] = test: Anticonvulsant activity in ip dosed Swiss CF1 mouse measured after 0.5 hrs by MES test; type: functional
[5] = Neurotoxicity in ip dosed Swiss CF1 mouse assessed as induction of motor impairment measured after 4 hrs by rotorod test; type: toxicity, organism-based; conditions: in vivo, read-out: MTD50
Mus musculus [6] = test: Anticonvulsant activity in ip dosed Swiss CF1 mouse measured after 4 hrs by MES test; type: functional
[7] = Neurotoxicity in ip dosed Swiss CF1 mouse assessed as induction of motor impairment measured after 0.5 hrs by rotorod test; type: toxicity, organism-based; conditions: in vivo, read-out: MTD50
Mus musculus [8] = test: Behavioral activity in Swiss CF1 mouse assessed as activity score at 100 mg/kg, ip measured after 4 hrs post dose by actophotometry; type: organism-based; parameters: dose 100 mg/kg, route intraperitoneal; conditions: in vivo
[9] = Lipophilicity, log P of the compound by UV spectroscopy; type: physicochemical; conditions: octanol/water
Mus musculus [10] = test: Hepatotoxicity in Swiss CF1 mouse assessed as induction of necrosis and fatty changes at 300 mg/kg, ip; type: toxicity, organism-based; parameters: dose 300 mg/kg, route intraperitoneal; conditions: in vivo
Mus musculus [11] = test: Hepatotoxicity in Swiss CF1 mouse assessed as induction of fatty changes and inflammations at 300 mg/kg, ip; type: toxicity, organism-based; parameters: dose 300 mg/kg, route intraperitoneal; conditions: in vivo
Mus musculus [12] = test: Hepatotoxicity in Swiss CF1 mouse assessed as induction of inflammation and necrosis at 300 mg/kg, ip; type: toxicity, organism-based; parameters: dose 300 mg/kg, route intraperitoneal; conditions: in vivo

SMILES	MED50 (Mus musculus [1])	MED50 (Mus musculus [2])	Activity (Mus musculus [3])	MED50 (Mus musculus [4])	TD50 at 4 h [5]	MED50 (Mus musculus [6])	TD50 at 0.5 h [7]	Activity (Mus musculus [8])	logP [9]	Activity (Mus musculus [10])	Activity (Mus musculus [11])	Activity (Mus musculus [12])
CCCC(CCC)C(=O)[O-].[Na+] [VALPROATE SODIUM]	inactive	300 mg/kg										
COc1ccc(C2SCC(=O)N2NC(=O)CNC(=O)c2ccccc2)cc1 (stereo not given)	inactive	100 mg/kg	77.8	300 mg/kg	300 mg/kg	inactive	300 mg/kg	80.2	1.85			
O=C(CNC(=O)c1ccccc1)NN1C(=O)CSC1c1cccc(Cl)c1 (stereo not given)	inactive	inactive	102.6	300 mg/kg	30 mg/kg	inactive	30 mg/kg	108.2	2.8			
O=C1NC(=O)C(c2ccccc2)(c2ccccc2)N1 [PHENYTOIN]				30 mg/kg		30 mg/kg				Toxic		
COc1ccc(C2SCC(=O)N2NC(=O)CNC(=O)c2ccccc2)cc1OC (stereo not given)	300 mg/kg	100 mg/kg	42	30 mg/kg		30 mg/kg		88.6	1.85		Non-toxic	
O=C(CNC(=O)c1ccccc1)NN1C(=O)CSC1c1ccccc1 (stereo not given)	300 mg/kg	100 mg/kg	74	300 mg/kg	300 mg/kg	300 mg/kg	100 mg/kg	94.8	1.95			Toxic
O=C(CNC(=O)c1ccccc1)NN1C(=O)CSC1c1ccc(F)cc1 (stereo not given)	inactive	inactive	64.6	inactive	300 mg/kg	inactive		94	2.1			
O=C(CNC(=O)c1ccccc1)NN1C(=O)CSC1c1ccccc1Cl (stereo not given)	inactive	inactive	108.8	100 mg/kg	100 mg/kg	300 mg/kg	100 mg/kg	110.8	2.3			
O=C(CNC(=O)c1ccccc1)NN1C(=O)CSC1c1ccc(O)cc1 (stereo not given)	inactive	inactive	38.2	30 mg/kg		100 mg/kg		99.6	1.75			
COc1cc(C2SCC(=O)N2NC(=O)CNC(=O)c2ccccc2)cc(OC)c1OC (stereo not given)	300 mg/kg	300 mg/kg	92.6	100 mg/kg	100 mg/kg	300 mg/kg	100 mg/kg	101	1.65			
O=C(CNC(=O)c1ccccc1)NN1C(=O)CSC1c1c[nH]c2ccccc12 (stereo not given)	inactive	inactive	102.6	300 mg/kg	100 mg/kg	inactive	300 mg/kg	120	1.7			
O=C(CNC(=O)c1ccccc1)NN1C(=O)CSC1c1ccc(Cl)cc1 (stereo not given)	inactive	300 mg/kg	103.6	100 mg/kg		100 mg/kg		71.6	2.87			
